# Laboratory results published in PubChem BioAssay (NCI).
#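 Five concentrations, 48 hours, 96-well plates. TGI marks complete inhibition of growth.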
# Tests used:
# Assay in all cases: NCI tumour cell line growth inhibition, 48 h
# ACHN renal = test system: ACHN renal
# LXFL 529 NSCLC = test system: LXFL 529 NSCLC
# SK-MEL-28 melanoma = test system: SK-MEL-28 melanoma
# OVCAR-3 ovarian = test system: OVCAR-3 ovarian
# CCRF-CEM leukemia = test system: CCRF-CEM leukemia
# SF-295 CNS = test system: SF-295 CNS
# SW-620 colon = test system: SW-620 colon
# SF-268 CNS = test system: SF-268 CNS
# COLO 205 colon = test system: COLO 205 colon
# M19-MEL melanoma = test system: M19-MEL melanoma
# UACC-257 melanoma = test system: UACC-257 melanoma
# HCT-15 colon = test system: HCT-15 colon
# HOP-92 NSCLC = test system: HOP-92 NSCLC
# RPMI-8226 leukemia = test system: RPMI-8226 leukemia
# HOP-62 NSCLC = test system: HOP-62 NSCLC
# HOP-18 NSCLC = test system: HOP-18 NSCLC
# A498 renal = test system: A498 renal
# SNB-78 CNS = test system: SNB-78 CNS
# DMS 114 small cell lung = test system: DMS 114 small cell lung
# 786-0 renal = test system: 786-0 renal
# SK-MEL-5 melanoma = test system: SK-MEL-5 melanoma
# TK-10 renal = test system: TK-10 renal
# NCI-H23 lung = test system: NCI-H23 lung
# HT29 colon = test system: HT29 colon
# DLD-1 colon = test system: DLD-1 colon
# UO-31 renal = test system: UO-31 renal
# IGROV1 ovarian = test system: IGROV1 ovarian
# MALME-3M melanoma = test system: MALME-3M melanoma
# SNB-75 CNS = test system: SNB-75 CNS
# SNB-19 CNS = test system: SNB-19 CNS
# HCC-2998 colon = test system: HCC-2998 colon
# RXF-631 renal = test system: RXF-631 renal
# OVCAR-4 ovarian = test system: OVCAR-4 ovarian
# U251 CNS = test system: U251 CNS
# SF-539 CNS = test system: SF-539 CNS
# A549 NSCLC = test system: A549 NSCLC
# M14 melanoma = test system: M14 melanoma
# HL-60(TB) leukemia = test system: HL-60(TB) leukemia
# OVCAR-8 ovarian = test system: OVCAR-8 ovarian
# HCT-116 colon = test system: HCT-116 colon
# NCI-H522 lung = test system: NCI-H522 lung
# CAKI-1 renal = test system: CAKI-1 renal
# MOLT-4 leukemia = test system: MOLT-4 leukemia
# UACC-62 melanoma = test system: UACC-62 melanoma
# K-562 leukemia = test system: K-562 leukemia
# XF 498 CNS = test system: XF 498 CNS
# OVCAR-5 ovarian = test system: OVCAR-5 ovarian
# NCI-H460 lung = test system: NCI-H460 lung
# SN12C renal = test system: SN12C renal
# KM20L2 colon = test system: KM20L2 colon
# SK-OV-3 ovarian = test system: SK-OV-3 ovarian
# NCI-H226 lung = test system: NCI-H226 lung
# EKVX NSCLC = test system: EKVX NSCLC
# SK-MEL-2 melanoma = test system: SK-MEL-2 melanoma
# SR leukemia = test system: SR leukemia
# DMS 273 small cell lung = test system: DMS 273 small cell lung
# KM12 colon = test system: KM12 colon
# LOX IMVI melanoma = test system: LOX IMVI melanoma
# RXF 393 renal = test system: RXF 393 renal
smiles,measurement,setting,value
Cc1cccc(C)c1NC(=O)CCCC(=O)C1/C(=N/NC(=O)CC#N)CCC/C1=N\NC(=O)CC#N (stereo unspecified),TGI,ACHN renal,> 100 µM
same,TGI,LXFL 529 NSCLC,> 100 µM
same,TGI,SK-MEL-28 melanoma,> 100 µM
same,TGI,OVCAR-3 ovarian,> 100 µM
same,TGI,CCRF-CEM leukemia,> 100 µM
same,TGI,SF-295 CNS,> 100 µM
same,TGI,SW-620 colon,> 100 µM
same,TGI,SF-268 CNS,> 100 µM
same,TGI,COLO 205 colon,> 100 µM
same,TGI,M19-MEL melanoma,> 100 µM
same,TGI,UACC-257 melanoma,> 100 µM
same,TGI,HCT-15 colon,> 100 µM
same,TGI,HOP-92 NSCLC,> 100 µM
same,TGI,RPMI-8226 leukemia,> 100 µM
same,TGI,HOP-62 NSCLC,> 100 µM
same,TGI,HOP-18 NSCLC,> 100 µM
same,TGI,A498 renal,> 100 µM
same,TGI,SNB-78 CNS,> 100 µM
same,TGI,DMS 114 small cell lung,> 100 µM
same,TGI,786-0 renal,> 100 µM
same,TGI,SK-MEL-5 melanoma,> 100 µM
same,TGI,TK-10 renal,> 100 µM
same,TGI,NCI-H23 lung,> 100 µM
same,TGI,HT29 colon,> 100 µM
same,TGI,DLD-1 colon,> 100 µM
same,TGI,UO-31 renal,> 100 µM
same,TGI,IGROV1 ovarian,> 100 µM
same,TGI,MALME-3M melanoma,> 100 µM
same,TGI,SNB-75 CNS,> 100 µM
same,TGI,SNB-19 CNS,> 100 µM
same,TGI,HCC-2998 colon,> 100 µM
same,TGI,RXF-631 renal,> 100 µM
same,TGI,OVCAR-4 ovarian,> 100 µM
same,TGI,U251 CNS,> 100 µM
same,TGI,SF-539 CNS,> 100 µM
same,TGI,A549 NSCLC,> 100 µM
same,TGI,M14 melanoma,> 100 µM
same,TGI,HL-60(TB) leukemia,> 100 µM
same,TGI,OVCAR-8 ovarian,> 100 µM
same,TGI,HCT-116 colon,> 100 µM
same,TGI,NCI-H522 lung,> 100 µM
same,TGI,CAKI-1 renal,> 100 µM
same,TGI,MOLT-4 leukemia,> 100 µM
same,TGI,UACC-62 melanoma,> 100 µM
same,TGI,K-562 leukemia,> 100 µM
same,TGI,XF 498 CNS,> 100 µM
same,TGI,OVCAR-5 ovarian,> 100 µM
same,TGI,NCI-H460 lung,> 100 µM
same,TGI,SN12C renal,> 100 µM
same,TGI,KM20L2 colon,> 100 µM
same,TGI,SK-OV-3 ovarian,> 100 µM
same,TGI,NCI-H226 lung,> 100 µM
same,TGI,EKVX NSCLC,> 100 µM
same,TGI,SK-MEL-2 melanoma,> 100 µM
same,TGI,SR leukemia,> 100 µM
same,TGI,DMS 273 small cell lung,> 100 µM
same,TGI,KM12 colon,> 100 µM
N#C/C(=C\c1cccc(Cl)c1Cl)c1ccccc1,TGI,ACHN renal,> 90.8 µM
same,TGI,LXFL 529 NSCLC,> 100 µM
same,TGI,SK-MEL-28 melanoma,> 100 µM
same,TGI,OVCAR-3 ovarian,> 92.6 µM
same,TGI,CCRF-CEM leukemia,> 46.4 µM
same,TGI,SF-295 CNS,60.4 µM
same,TGI,SW-620 colon,> 72.4 µM
same,TGI,SF-268 CNS,> 100 µM
same,TGI,LOX IMVI melanoma,> 100 µM
same,TGI,COLO 205 colon,> 100 µM
same,TGI,M19-MEL melanoma,> 100 µM
same,TGI,UACC-257 melanoma,> 100 µM
same,TGI,HCT-15 colon,> 77.6 µM
same,TGI,HOP-92 NSCLC,> 82.3 µM
same,TGI,RXF 393 renal,> 79.2 µM
same,TGI,RPMI-8226 leukemia,> 89.1 µM
same,TGI,HOP-62 NSCLC,60.9 µM
same,TGI,HOP-18 NSCLC,> 90.4 µM
same,TGI,A498 renal,89.6 µM
same,TGI,SNB-78 CNS,> 100 µM
same,TGI,DMS 114 small cell lung,> 73.1 µM
same,TGI,786-0 renal,65.2 µM
same,TGI,SK-MEL-5 melanoma,> 100 µM
same,TGI,TK-10 renal,91.6 µM
same,TGI,NCI-H23 lung,> 72.9 µM
same,TGI,HT29 colon,> 100 µM
same,TGI,DLD-1 colon,> 100 µM
same,TGI,UO-31 renal,> 91.2 µM
same,TGI,IGROV1 ovarian,55.2 µM
same,TGI,MALME-3M melanoma,> 70 µM
same,TGI,SNB-75 CNS,51.1 µM
same,TGI,SNB-19 CNS,> 90.7 µM
same,TGI,HCC-2998 colon,> 100 µM
same,TGI,RXF-631 renal,> 100 µM
same,TGI,OVCAR-4 ovarian,> 85.6 µM
same,TGI,U251 CNS,69.5 µM
same,TGI,SF-539 CNS,53.3 µM
same,TGI,A549 NSCLC,> 100 µM
same,TGI,M14 melanoma,> 100 µM
same,TGI,HL-60(TB) leukemia,> 100 µM
same,TGI,OVCAR-8 ovarian,> 100 µM
same,TGI,HCT-116 colon,> 67.5 µM
same,TGI,NCI-H522 lung,> 100 µM
same,TGI,CAKI-1 renal,77.7 µM
same,TGI,MOLT-4 leukemia,> 100 µM
same,TGI,UACC-62 melanoma,> 100 µM
same,TGI,K-562 leukemia,> 100 µM
same,TGI,XF 498 CNS,> 57.4 µM
same,TGI,OVCAR-5 ovarian,> 100 µM
same,TGI,NCI-H460 lung,> 100 µM
same,TGI,SN12C renal,> 100 µM
same,TGI,KM20L2 colon,> 100 µM
same,TGI,SK-OV-3 ovarian,> 89.9 µM
same,TGI,NCI-H226 lung,> 100 µM
same,TGI,EKVX NSCLC,> 100 µM
same,TGI,SK-MEL-2 melanoma,> 100 µM
same,TGI,SR leukemia,> 80.9 µM
same,TGI,DMS 273 small cell lung,> 54.1 µM
same,TGI,KM12 colon,> 100 µM
